From US11193004B2, “Phosphoric ester preparations with reduced hygroscopicity” (LANXESS Deutschland GmbH, priority 2013, dated 2021) come the findings set out here.

Data set [1] is described as follows: Solubility in water of phosphoric esters b).
A further data set in a line: physchem. Conditions: 25 °C, water.

As to Diphenyl cresyl phosphate [DPC], the “Solubility in water at 25° C.” value in data set [1] turned out to be 2.6 µg/mL.
On to `CCOP(=O)(OCC)OCC` [TEP, Triethyl phosphate], for which the solubility (usually the dissolved amount per volume that the medium holds) in the data set “physchem” is greater than 3000 µg/mL. Moreover, the “Solubility in water at 25° C.” value in data set [1] is listed as “miscible”.
For the compound `O=P(OC(CCl)CCl)(OC(CCl)CCl)OC(CCl)CCl` [TDCP, Tris(2,3-dichloroisopropyl) phosphate], the “Solubility in water at 25° C.” value in data set [1] was determined as 100 µg/mL.
Isopropylated triphenyl phosphate [IPP]: the “Solubility in water at 25° C.” value in data set [1] was 0.33 µg/mL.
